In US20120197004A1, “NOVEL ANTI-MICROBIAL PEPTIDOMIMETIC COMPOUNDS AND METHODS TO CALCULATE ANTI-MICROBIAL ACTIVITY” (priority 2006, published 2012):
Where a SMILES comes first, the peptide text is derived from it. [ ]: non-standard residue; d: D form. Oic = O=C(O)[C@@H]1C[C@@H]2CCCC[C@@H]2N1; Tic = O=C(O)[C@@H]1Cc2ccccc2CN1; GABA = NCCCC(=O)O

System: Mycobacterium ranae (ATCC 110)
Conditions: in vitro

With `CC(=O)NCCCC(=O)N[C@@H](Cc1ccccc1)C(=O)N1Cc2ccccc2C[C@H]1C(=O)N1[C@H](C(=O)NCCCC(=O)N[C@@H](CCCCN)C(=O)N2Cc3ccccc3C[C@H]2C(=O)N2[C@H](C(=O)NCCCC(=O)N[C@@H](Cc3ccccc3)C(=O)N3Cc4ccccc4C[C@H]3C(=O)N3[C@H](C(=O)NCCCC(=O)N[C@@H](CCCCN)C(=O)N4Cc5ccccc5C[C@H]4C(=O)N[C@@H](CCCCN)C(=O)N[C@@H](CCCCN)C(=O)N[C@@H](CCCCN)C(=O)N[C@@H](CCCCN)C(=O)N[C@@H](CCCCN)C(N)=O)C[C@@H]4CCCC[C@@H]43)C[C@@H]3CCCC[C@@H]32)C[C@@H]2CCCC[C@@H]21` [FKAB-1Gd3, Ac-Gaba-F-Tic-Oic-Gaba-K-Tic-Oic-Gaba-F-Tic-Oic-Gaba-K-Tic-KKKKK-CONH2] (Ac-[GABA]F[Tic][Oic][GABA]K[Tic][Oic][GABA]F[Tic][Oic][GABA]K[Tic]KKKKK-NH2) the “selectivity for Mycobacterium ranae over Staphylococcus aureus ME/GM/TC resistant” value was 10 fold.
